# Patent EP0232017A1 (priority 1986, dated 1987)
# Tested on: anaerobes and Gram positive aerobes
# Format: cell-based
# Conditions: dipped-disc Biospectrum assay at 1 mg/ml; result in words, zone sizes only in image Tables XIII-XV
row,Structure (SMILES),activity vs. anaerobes and Gram positive aerobes
1,"CCCCCC(=O)N1CC(C(C)C)C1=O (stereo not drawn) [2-azetidinone, 3-(1-methylethyl)-1-(1-oxohexyl)-]",high activity
2,"CCCCC(=O)N1CC(C(C)C)C1=O (racemic) [2-azetidinone, 3-(1-methylethyl)-1-(1-oxopentyl)-, (±)-]",high activity
3,"CCCC(=O)N1CC(C(C)C)C1=O (stereo not drawn) [2-azetidinone, 3-(1-methylethyl)-1-(1-oxobutyl)-]",high activity
4,"CC(=O)N1CC(C(C)C)C1=O (racemic) [2-azetidinone, 1-acetyl-3-(1-methylethyl)-, (±)-]",high activity
5,"CCCCCCCC(=O)N1CC(C(C)C)C1=O (racemic) [2-azetidinone, 3-(1-methlethyl)-1-(oxooctyl)-, (±)-]",high activity
6,"CCCCCC(=O)N1C(=O)[C@@H]2CCCC[C@@H]21 (relative stereo) [Example 94, N-Hexanoyl-cis-3,4-tetramethylene-2-azetidinone]",high activity
